Test results: paper PMC7812667 (ACS Medicinal Chemistry Letters, 2020)

Test: LogD shake-flask, octanol and water
Assay type: physicochemical
Conditions: pH 7.4

reduction in logD (versus compound 5): over 1.5 log units
SMILES: c1ccc(Cc2c[nH]c3ncc(-c4cnn(C5CCNCC5)c4)cc23)cc1 [Compound 6]
